Common to all, as to experiment: two-electrode voltage clamp, agonist-induced current in oocytes
Assay type in all cases: cell-based
Holding throughout (conditions): read-out: Glycine Dose-Response Relationship / EC50, -50 mV, ND96 without Ca2+, pH 7.4, 21-23 °C
(In two-electrode clamp one electrode senses voltage and the other passes current.)

One test deals with T1, GlyRα3.
T1 construct: gene GLRA3; subunit expressed individually (homopentamer by known biology); plasmid pNKS2(GlyRα3); cRNA-injected Xenopus laevis oocytes
An excerpt:
two-electrode voltage clamp, agonist-induced current in oocytes on GlyRα3

Another test concerns T2, GlyRα1.
T2 construct: gene GLRA1; homomeric receptor (pentamer by known biology); plasmid pNKS2(GlyRα1); cRNA-injected Xenopus laevis oocytes
An excerpt: two-electrode voltage clamp, agonist-induced current in oocytes on GlyRα1

In another test the test system is T3, GlyRα2.
T3 construct: gene GLRA2; subunit expressed individually (homopentamer by known biology); plasmid pNKS2(GlyRα2); cRNA-injected Xenopus laevis oocytes
An excerpt:
two-electrode voltage clamp, agonist-induced current in oocytes on GlyRα2

The structures appear in SMILES notation.

Consider `NCC(=O)O` [glycine], for which the EC50 in the test on GlyRα3 is 234 µM; in the test on GlyRα1, 162 µM; with GlyRα2, 325 µM.

Values taken from article PMC8064320, “Modulation of Glycinergic Neurotransmission may Contribute to the Analgesic Effects of Propacetamol” (Biomolecules, 2021).
